Laboratory results from patent US8277807B2, “Pharmaceutical combinations” (Astex Therapeutics Limited, priority 2006, dated 2012).
Structures can show the parent of a compound that is named as a salt. One block for each molecule: values may come before it.

Columns and labels:
[1] = Solid-state stability of L-lactate crystal forms (XRPD); type: physicochemical; details: in air; 40° C. and 75% RH where stated
Excerpt: Samples for X-ray powder diffraction (XRPD) data collection were gently ground by marble mortar and loaded into a crystallographic capillary (from Hampton Research, Quartz or Glass Type 10, 0.4 or 0.7 mm diameter). Diffraction patterns were collected at room temperature using CuKα radiation (λ=1.5418 Å) from a Rigaku rotating anode RU3HR, Osmic blue confocal optics, ¼ c goniometer and a Rigaku HTC image plate detector. 2D Images were collected while spinning φ axis with a detector to crystal distance of 250 mm. Data collection was controlled by CrystalClear software and 2D images were converted to 1D plot (20 vs. Intensity) by Datasqueeze (intensity averaged over the azimuthal angle 0<χ<360° for 2θ range 3-30° in 0.02° steps). In house program AstexXRPD was used for manipulation and visualisation of 1D XRPD patterns.

APL patients = details: in vivo; cited from earlier work
HCT116 cell line = experiment: Anti-proliferative activity, Alamar Blue assay; type: cell-based; details: Homo sapiens, HCT-116, 72 h, read-out: IC50 value against the HCT116 cell line
Experimental: The anti-proliferative activities of compounds for use in the combinations of the invention can be determined by measuring the ability of the compounds to inhibition of cell growth in a number of cell lines such as the human colon cancer cell line HCT116. […] The method is based on the ability of viable cells to reduce resazurin to its fluorescent product resorufin. […] The number of viable cells is determined by Alamar Blue assay as before. Cell lines can be obtained from the ECACC (European Collection of cell Cultures).

[2] = molecular target: T1, Human Hsp90α N-terminal domain (Homo sapiens, UniProt P07900); experiment: Isothermal titration calorimetry (ITC) binding to Hsp90; details: 25 mM Tris, 100 mM NaCl, 1 mM MgCl2, 1 mM TCEP, 5% DMSO, pH 7.4
T1 construct: Cloning, expression, and purification of the Human Hsp90α N-terminal domain were performed according to published methods; made in house
Experimental: The ability of the compounds for use in the combinations of the invention to bind to human Hsp90 proteins was determined using isothermal titration calorimetry.
Isothermal titration calorimetry (ITC) experiments were performed with a VP-ITC titration calorimeter (Microcal Inc., Northampton, Mass., USA). […] All solutions were filtered and degassed prior to a titration being carried out. The enthalpy change resulting from each injection of ligand was obtained through integration of the calorimetric signal. Data were analysed using Origin 7.0 (Microcal Software Inc., Northampton, Mass.). Heats of dilution were estimated using the final injections of each individual titration and subtracted before data fitting. Different ITC experimental formats were employed in order to obtain compound dissociation constants (Kd's) over a wide range of affinities. […] In this type of experiment the stoichiometry parameter (N) was locked at 1 for data fitting.

OVCAR-3 tumour cells = details: concentrations of 50 and 100 microM; PKB amplified; cited from earlier work
PKG = details: data published 2002; read-out: IC50, inhibition of PKG; cited from earlier work
PKA = details: data published 2002; read-out: IC50, inhibition of PKA; cited from earlier work
PKC = details: data published 2002; read-out: IC50, inhibition of PKC; cited from earlier work
[3] = Salt properties of the L-lactate of compound (1); type: physicochemical
[4] = test system: P-glycoprotein-overexpressing subline of CCRF-CEM; details: subline of leukemic cell line CCRF-CEM; Chou et al. 1998; read-out: IC50 against P-glycoprotein-overexpressing subline; cited from earlier work

- stability of crystal form [1]: transforms in air into form FL1
SMILES: CC(C)c1cc(C(=O)N2Cc3ccc(CN4CCN(C)CC4)cc3C2)c(O)cc1O.C[C@H](O)C(=O)O [Form FL3, (2,4-dihydroxy-5-isopropyl-phenyl)-[5-(4-methyl-piperazin-1-ylmethyl)-1,3-dihydro-isoindol-2-yl]-methanone L-lactate]

- stability of crystal form [1]: stable in air
SMILES: CC(C)c1cc(C(=O)N2Cc3ccc(CN4CCN(C)CC4)cc3C2)c(O)cc1O.C[C@H](O)C(=O)O [form FL2, (2,4-dihydroxy-5-isopropyl-phenyl)-[5-(4-methyl-piperazin-1-ylmethyl)-1,3-dihydro-isoindol-2-yl]-methanone L-lactate]

The next lines start with the molecule.

SMILES: CC(C)c1cc(C(=O)N2Cc3ccc(CN4CCN(C)CC4)cc3C2)c(O)cc1O.C[C@H](O)C(=O)O [Form FL1, (2,4-dihydroxy-5-isopropyl-phenyl)-[5-(4-methyl-piperazin-1-ylmethyl)-1,3-dihydro-isoindol-2-yl]-methanone L-lactate]
- stability of crystal form [1]: stable in air and at 40 °C and 75% RH for at least one month

SMILES: CC1=C(/C=C/C(C)=C/C=C/C(C)=C/C(=O)O)C(C)(C)CCC1 [Tretinoin, all-trans retinoic acid]
- remissions in APL patients (APL patients): 64-100%

SMILES: CC(C)c1cc(C(=O)N2Cc3ccc(C(=O)N4CCNCC4)cc3C2)c(O)cc1O [Example 54, (2,4-dihydroxy-5-isopropyl-phenyl)-[5-(piperazine-1-carbonyl)-1,3-dihydro-isoindol-2-yl]-methanone hydrochloride]
- IC50 (HCT116 cell line): < 1 µM

SMILES: CC(C)c1cc(C(=O)N2Cc3ccccc3C2)c(O)cc1O [Example 5, (1,3-Dihydro-1H-isoindol-2-yl)-(2,4-dihydroxy-5-isopropyl-phenyl)-methanone]
- IC50 (HCT116 cell line): < 1 µM

SMILES: CC(C)c1cc(C(=O)N2Cc3ccc(CN4CCN(C)CC4)cc3C2)c(O)cc1O [Example 55, (2,4-dihydroxy-5-isopropyl-phenyl)-[5-(4-methyl-piperazin-1-ylmethyl)-1,3-dihydro-isoindol-2-yl]-methanone]
- Kd [2]: < 0.1 µM

SMILES: O=S(=O)(NCCNCC=C(c1ccccc1)c1ccccc1)c1cccc2cnccc12 [NL-71-101]
- Apoptosis in OVCAR-3 tumour cells (OVCAR-3 tumour cells): induced apoptosis
- IC50 (PKG): 36 µM
- IC50 (PKA): 9 µM
- IC50 (PKC): 104 µM

SMILES: CC(C)c1cc(C(=O)N2Cc3ccc(CN4CCN(C)CC4)cc3C2)c(O)cc1O.C[C@H](O)C(=O)O [(2,4-dihydroxy-5-isopropyl-phenyl)-[5-(4-methyl-piperazin-1-ylmethyl)-1,3-dihydro-isoindol-2-yl]-methanone L-lactate salt]
- hygroscopicity [3]: non-hygroscopic
- rate of solubility ([3]; compared with free base and hydrochloric and sulphuric acid salts): better rate of solubility than the free base and other salts tested

SMILES: C/C1=C/C[C@@H](/C(C)=C/c2csc(C)n2)OC(=O)C[C@H](O)C(C)(C)C(=O)[C@H](C)[C@@H](O)[C@@H](C)CCC1 [desoxyepothilone B]
- IC50 [4]: 0.017 µM
